Reference: patent US20120053076A1, “METHODS FOR IDENTIFICATION” (Cambridge Enterprise Limited, priority 2009, published 2012)

Columns and labels:
sstr2 = biological target: T1, sstr2 (Homo sapiens, UniProt P30874); test: Equilibrium binding of [3H]-BN83250 to THP-1 cells; conditions: competition with [3H]-BN83250
T1 construct: with 1×10^6 THP-1 cells in Gey's Balanced Salt Solution; endogenous in cells; host or cells: THP-1 cells (whole cells, 4° C.)
Protocol: Methods: [^3H]-BN83250 was synthesesized from (S,E)-3-(2′,2′-dimethyldodec-4′-enoylamino)-caprolactam by catalytic hydrogenation using tritium gas over a palladium catalyst (CRB Ltd, Cleveland, UK), yielding the tritiated product at a concentration of […] in ethanol with a specific activity of 220 Ci/mmol. The (S,E)-3-(2′,2′-dimethyldodec-4′-enoylamino)-caprolactam was prepared as follows: (S,S)-3-amino-caprolactam hydro-pyrrolidine-5-carboxylate (10 mmol) and Na2CO3 (30 mmol) in water (30 ml) were added to a solution of 2,2-dimethyl-dodec-4-enoyl chloride (10 mmol) in dichloromethane (30 ml) at ambient temperature and the reaction was stirred for 12 hours. The organic layer was then separated and the aqueous phase was extracted with additional dichloromethane (2×25 ml). The combined organic layers were dried over Na2CO3 and reduced in vacuo. The residue was purified by silica column chromatography (1:1 EtOAc:hexanes to EtOAc) to give […]-3-(2′,2′-dimethyl-dodec-4′-enoyl)amino-caprolactam as a colourless oil (2.12 g, 63%). The radiolabelled compound was stored in the dark at 4° C. until required. Prior to use the specific activity was adjusted by addition of unlabelled BN83250.
For the analysis of binding, individual reactions were set up (in triplicate for each condition), with 1×10^6 THP-1 cells in Gey's Balanced Salt Solution, 10 nM [^3H]-BN83250 (at 50 Ci/mmol) and various concentrations of (S)-3(2′2′-dimethylpropionoylamino)-tetrahydropyridin-2-one (10 pM to 10 μM). Excess (100 μM) unlabelled BN83250 was used to determine the level of non-specific binding. After 2 hours at 4° C. (conditions previously shown to achieve equilibrium binding, and which prevent uptake of the radioligand that would result in an over-estimate of binding) excess label was washed away by centrifugation (3 washes with 5 ml of Gey's Balanced Salt Solution) and the bound radioactivity was determined by scintillation counting of the solubilised cell pellet.

Jurkat-D3B cells = test: SDF-1α induced migration of Jurkat-D3B cells expressing sstr2; assay type: cell-based, human
Protocol: Methods: Total mRNA was prepared from Panc-1 cells (a human pancreas cell line which is well known to express high levels of sstr2) using the RNAqueous 4PCR kit (Ambion, Cat code #1914) in accordance with the manufacturer's instructions. The mRNA was then reverse transcribed (using the RETROscript kit; Ambio) to yield a cDNA preparation. A full length cDNA of the sstr2 gene was then obtained by PCR (using a Peltier PTC-200 thermal cycler using the following cycle times and conditions: 94° C. for 2 min, followed by 30 cycles of 94° C., for 30 sec, 55° C. for 30 sec, 72° C. for 1 min and finally 72° C. for 10 min), and isolated by preparative gel electrophoresis. The sequence of the sstr2 cDNA was confirmed by sequencing. The sstr2 cDNA was treated with EcoRI and Xhol to generate sticky ends, which allowed directional cloning into the polylinker of the plasmid pcDNA3.1+ (Invitrogen) followed by ligation (100 ligation reactions were run with 400 T4 DNA ligase (New England Biolabs) and the maximal amounts of DNA with an insert:plasmid ratio of 3:1 in ligase buffer incubated overnight at 13° C.). […]
A number of individual cell lines were obtained in this way, which expressed significant levels of sstr2 on the cell surface, detected by flow cytometry using the human-sstr2 antibody (Sigma, 50694; see Example 3 for details of the flow cytometry protocol used). […]

fetal rat pituicytes = test: Rat pituicyte GH suppression assay; assay type: cell-based
Excerpt: Two different assays for “classical” sstr2 functions were adopted: (1) cultured foetal rat pituitary cells secreted growth hormone which is inhibited by sstr2 agonists in a dose-dependent fashion and (2) selected glucose-sensitive sub-clones of the human Panc-1 cell line secrete insulin which is inhibited by sstr2 agonists in a dose-dependent fashion.
Methods: Cultures of fetal rat pituicytes were established exactly as previously described (Murray et al. (2004) J. Clin. Endocrinol. Metab. 89:3027-32) by enzymatic dispersion. After 48 hrs in low glucose DMEM plus 10% FCS, cells in 48 well plates (5×10^4 cells per well) were washed for 4 hrs in serum-free DMEM and then incubated with test agents at various concentrations for a further 24 hrs in serum-free DMEM. At the end of this period, the conditioned medium was harvested, any cell debris removed by centrifugation and assayed for GH using a commercially available ELISA (Linco; cat# EZRMGH-45K) in accordance with the manufacturer's instructions.
Results were reported as the mean±SD, expressed as the fold change from cells in the presence of vehicle only.

[1] = tested on: rat peripheral blood leukocytes; test: Rat chemokine-induced PBMC migration assay; assay type: cell-based; conditions: Table 3

T1 sequence (P30874 whole entry): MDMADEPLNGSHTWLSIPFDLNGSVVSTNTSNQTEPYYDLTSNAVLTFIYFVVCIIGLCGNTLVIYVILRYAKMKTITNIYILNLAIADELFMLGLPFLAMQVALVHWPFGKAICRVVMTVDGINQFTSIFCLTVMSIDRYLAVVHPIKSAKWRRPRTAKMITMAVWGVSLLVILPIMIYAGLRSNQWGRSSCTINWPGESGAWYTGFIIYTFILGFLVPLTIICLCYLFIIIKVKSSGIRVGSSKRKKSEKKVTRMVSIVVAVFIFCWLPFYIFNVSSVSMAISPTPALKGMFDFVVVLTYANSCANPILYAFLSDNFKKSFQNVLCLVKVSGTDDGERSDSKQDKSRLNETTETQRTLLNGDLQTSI

Compound	Hill Slope (sstr2)	Inhibition of Jurkat-D3B migration, in words (Jurkat-D3B cells)	Inhibition of GH release, in words (fetal rat pituicytes)	Emax ([1]; Rattus norvegicus, Leukocyte, read-out: Rat chemokine-induced PBMC migration assay Max effect)	EC50 (fetal rat pituicytes; Table 3, read-out: Rat pituicyte GH suppression assay ED50)	Rat pituicyte GH suppression assay Max effect (fetal rat pituicytes; Table 3, suppression compared to vehicle)	Rat chemokine-induced PBMC migration assay Max effect [1]
CC(C)(C)C(=O)N[C@H]1CCCNC1=O [Valerolactam, (S)-3-(2′,2′-dimethylpropionoylamino)-tetrahydropyridin-2-one]	approximately −1.0	sensitive to inhibition	inhibited GH release only at much higher concentrations	100%	–	–	–
(S)-3-(2′,2′-dimethyldodecanoyl)amino-caprolactam [BN83250]	–	–	inhibited GH release only at much higher concentrations	–	320 nM	63%	100%
